{"source": "PubChem BioAssay AID1963852", "about": "(Molecular Pharmacology Branch, DTP, NCI, 2024);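 also: spheroids exposed to compounds for seven days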;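 as to viability, T/C: 100% = DMSO vehicle control viability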", "tested_on": "282377-053-R-J1-PDC complex spheroid viability", "assay": "Anticancer human tumor 282377-053-R-J1-PDC patient-derived colon adenocarcinoma cell line growth inhibition [POLQ]", "details": "for IC50: curve of first compound; for viability, T/C: stronger effect = lower value", "summary_of_the_method": "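Patient-derived tumour cells were co-cultured with HUVEC and mesenchymal stem cells as multicellular spheroids at 37 °C. They were treated with POLQ inhibitors (novobiocin, ART-558, RP6685) alone or combined with other agents. Top concentrations were at or near clinical Cmax (otherwise 10 microM; SN-38 at 1 microM), decreasing in half-log steps.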", "key": {"[1]": {"details": "second compound 0.0316 µM, first compound 0.0316 µM"}, "[2]": {"details": "second compound 0.0316 µM, first compound 0.1 µM"}, "[3]": {"details": "second compound 0.0316 µM, first compound 0.316 µM"}, "[4]": {"details": "second compound 0.0316 µM, first compound 1 µM"}, "[5]": {"details": "second compound 0.1 µM, first compound 0.0316 µM"}, "[6]": {"details": "second compound 0.1 µM, first compound 0.1 µM"}, "[7]": {"details": "second compound 0.1 µM, first compound 0.316 µM"}, "[8]": {"details": "second compound 0.1 µM, first compound 1 µM"}, "[9]": {"details": "second compound 0.316 µM, first compound 0.0316 µM"}, "[10]": {"details": "second compound 0.316 µM, first compound 0.1 µM"}, "[11]": {"details": "second compound 0.316 µM, first compound 0.316 µM"}, "[12]": {"details": "second compound 0.316 µM, first compound 1 µM"}, "[13]": {"details": "second compound 1 µM, first compound 0.0316 µM"}, "[14]": {"details": "second compound 1 µM, first compound 0.1 µM"}, "[15]": {"details": "second compound 1 µM, first compound 0.316 µM"}, "[16]": {"details": "second compound 1 µM, first compound 1 µM"}, "[17]": {"details": "second compound 3.16 µM, first compound 0.0316 µM"}, "[18]": {"details": "second compound 3.16 µM, first compound 0.1 µM"}, "[19]": {"details": "second compound 3.16 µM, first compound 0.316 µM"}, "[20]": {"details": "second compound 3.16 µM, first compound 1 µM"}, "[21]": {"details": "second compound 10 µM, first compound 0.0316 µM"}, "[22]": {"details": "second compound 10 µM, first compound 0.1 µM"}, "[23]": {"details": "second compound 10 µM, first compound 0.316 µM"}, "[24]": {"details": "second compound 10 µM, first compound 1 µM"}}}
{"smiles": "C=CCn1c(=O)c2cnc(Nc3ccc(N4CCN(C)CC4)cc3)nc2n1-c1cccc(C(C)(C)O)n1", "note": "+ COC1C(OC(N)=O)C(O)C(Oc2ccc3c(O)c(NC(=O)c4ccc(O)c(CC=C(C)C)c4)c(=O)oc3c2C)OC1(C)C", "values": [{"measurement": "IC50", "setting": "second compound 0.0316 µM", "result": "> 1", "unit": "µM"}, {"measurement": "IC50", "setting": "second compound 0.1 µM", "result": "> 1", "unit": "µM"}, {"measurement": "IC50", "setting": "second compound 0.316 µM", "result": "> 1", "unit": "µM"}, {"measurement": "IC50", "setting": "second compound 1 µM", "result": "> 1", "unit": "µM"}, {"measurement": "IC50", "setting": "second compound 3.16 µM", "result": "> 1", "unit": "µM"}, {"measurement": "IC50", "setting": "second compound 10 µM", "result": "> 1", "unit": "µM"}, {"measurement": "viability, T/C", "setting": "second compound 0.0316 µM, first compound 0.00316 µM", "result": 85.2, "unit": "%"}, {"measurement": "viability, T/C", "setting": "second compound 0.0316 µM, first compound 0.01 µM", "result": 97.7, "unit": "%"}, {"measurement": "viability, T/C", "setting": "[1]", "result": 147, "unit": "%"}, {"measurement": "viability, T/C", "setting": "[2]", "result": 120, "unit": "%"}, {"measurement": "viability, T/C", "setting": "[3]", "result": 91.7, "unit": "%"}, {"measurement": "viability, T/C", "setting": "[4]", "result": 64.7, "unit": "%"}, {"measurement": "viability, T/C", "setting": "second compound 0.1 µM, first compound 0.00316 µM", "result": 122, "unit": "%"}, {"measurement": "viability, T/C", "setting": "second compound 0.1 µM, first compound 0.01 µM", "result": 108, "unit": "%"}, {"measurement": "viability, T/C", "setting": "[5]", "result": 94.4, "unit": "%"}, {"measurement": "viability, T/C", "setting": "[6]", "result": 118, "unit": "%"}, {"measurement": "viability, T/C", "setting": "[7]", "result": 99.1, "unit": "%"}, {"measurement": "viability, T/C", "setting": "[8]", "result": 89.9, "unit": "%"}, {"measurement": "viability, T/C", "setting": "second compound 0.316 µM, first compound 0.00316 µM", "result": 113, "unit": "%"}, {"measurement": "viability, T/C", "setting": "second compound 0.316 µM, first compound 0.01 µM", "result": 109, "unit": "%"}, {"measurement": "viability, T/C", "setting": "[9]", "result": 134, "unit": "%"}, {"measurement": "viability, T/C", "setting": "[10]", "result": 96.3, "unit": "%"}, {"measurement": "viability, T/C", "setting": "[11]", "result": 98.7, "unit": "%"}, {"measurement": "viability, T/C", "setting": "[12]", "result": 81.7, "unit": "%"}, {"measurement": "viability, T/C", "setting": "second compound 1 µM, first compound 0.00316 µM", "result": 114, "unit": "%"}, {"measurement": "viability, T/C", "setting": "second compound 1 µM, first compound 0.01 µM", "result": 90.5, "unit": "%"}, {"measurement": "viability, T/C", "setting": "[13]", "result": 93.1, "unit": "%"}, {"measurement": "viability, T/C", "setting": "[14]", "result": 109, "unit": "%"}, {"measurement": "viability, T/C", "setting": "[15]", "result": 110, "unit": "%"}, {"measurement": "viability, T/C", "setting": "[16]", "result": 67.8, "unit": "%"}, {"measurement": "viability, T/C", "setting": "second compound 3.16 µM, first compound 0.00316 µM", "result": 118, "unit": "%"}, {"measurement": "viability, T/C", "setting": "second compound 3.16 µM, first compound 0.01 µM", "result": 120, "unit": "%"}, {"measurement": "viability, T/C", "setting": "[17]", "result": 78.4, "unit": "%"}, {"measurement": "viability, T/C", "setting": "[18]", "result": 91.5, "unit": "%"}, {"measurement": "viability, T/C", "setting": "[19]", "result": 105, "unit": "%"}, {"measurement": "viability, T/C", "setting": "[20]", "result": 76.4, "unit": "%"}, {"measurement": "viability, T/C", "setting": "second compound 10 µM, first compound 0.00316 µM", "result": 88.5, "unit": "%"}, {"measurement": "viability, T/C", "setting": "second compound 10 µM, first compound 0.01 µM", "result": 91.8, "unit": "%"}, {"measurement": "viability, T/C", "setting": "[21]", "result": 87.2, "unit": "%"}, {"measurement": "viability, T/C", "setting": "[22]", "result": 102, "unit": "%"}, {"measurement": "viability, T/C", "setting": "[23]", "result": 96.7, "unit": "%"}, {"measurement": "viability, T/C", "setting": "[24]", "result": 75.5, "unit": "%"}]}
{"smiles": "CNCc1ccc(-c2[nH]c3cc(F)cc4c3c2CCNC4=O)cc1", "note": "+ Nc1ccc(C#CCN(C(=O)Cc2ncc(C(F)(F)F)cc2C(F)(F)F)c2ccc(F)cc2)nn1", "values": [{"measurement": "IC50", "setting": "second compound 0.0316 µM", "result": "> 10", "unit": "µM"}, {"measurement": "IC50", "setting": "second compound 0.1 µM", "result": "> 10", "unit": "µM"}, {"measurement": "IC50", "setting": "second compound 0.316 µM", "result": "> 10", "unit": "µM"}, {"measurement": "IC50", "setting": "second compound 1 µM", "result": "> 10", "unit": "µM"}, {"measurement": "IC50", "setting": "second compound 3.16 µM", "result": "> 10", "unit": "µM"}, {"measurement": "IC50", "setting": "second compound 10 µM", "result": "> 10", "unit": "µM"}, {"measurement": "viability, T/C", "setting": "[1]", "result": 105, "unit": "%"}, {"measurement": "viability, T/C", "setting": "[2]", "result": 88.6, "unit": "%"}, {"measurement": "viability, T/C", "setting": "[3]", "result": 90, "unit": "%"}, {"measurement": "viability, T/C", "setting": "[4]", "result": 104, "unit": "%"}, {"measurement": "viability, T/C", "setting": "second compound 0.0316 µM, first compound 3.16 µM", "result": 108, "unit": "%"}, {"measurement": "viability, T/C", "setting": "second compound 0.0316 µM, first compound 10 µM", "result": 112, "unit": "%"}, {"measurement": "viability, T/C", "setting": "[5]", "result": 119, "unit": "%"}, {"measurement": "viability, T/C", "setting": "[6]", "result": 117, "unit": "%"}, {"measurement": "viability, T/C", "setting": "[7]", "result": 104, "unit": "%"}, {"measurement": "viability, T/C", "setting": "[8]", "result": 94.6, "unit": "%"}, {"measurement": "viability, T/C", "setting": "second compound 0.1 µM, first compound 3.16 µM", "result": 97.4, "unit": "%"}, {"measurement": "viability, T/C", "setting": "second compound 0.1 µM, first compound 10 µM", "result": 112, "unit": "%"}, {"measurement": "viability, T/C", "setting": "[9]", "result": 95.7, "unit": "%"}, {"measurement": "viability, T/C", "setting": "[10]", "result": 86.2, "unit": "%"}, {"measurement": "viability, T/C", "setting": "[11]", "result": 89.8, "unit": "%"}, {"measurement": "viability, T/C", "setting": "[12]", "result": 108, "unit": "%"}, {"measurement": "viability, T/C", "setting": "second compound 0.316 µM, first compound 3.16 µM", "result": 92, "unit": "%"}, {"measurement": "viability, T/C", "setting": "second compound 0.316 µM, first compound 10 µM", "result": 108, "unit": "%"}, {"measurement": "viability, T/C", "setting": "[13]", "result": 95, "unit": "%"}, {"measurement": "viability, T/C", "setting": "[14]", "result": 103, "unit": "%"}, {"measurement": "viability, T/C", "setting": "[15]", "result": 100, "unit": "%"}, {"measurement": "viability, T/C", "setting": "[16]", "result": 90.8, "unit": "%"}, {"measurement": "viability, T/C", "setting": "second compound 1 µM, first compound 3.16 µM", "result": 115, "unit": "%"}, {"measurement": "viability, T/C", "setting": "second compound 1 µM, first compound 10 µM", "result": 101, "unit": "%"}, {"measurement": "viability, T/C", "setting": "[17]", "result": 109, "unit": "%"}, {"measurement": "viability, T/C", "setting": "[18]", "result": 98.3, "unit": "%"}, {"measurement": "viability, T/C", "setting": "[19]", "result": 127, "unit": "%"}, {"measurement": "viability, T/C", "setting": "[20]", "result": 92.4, "unit": "%"}, {"measurement": "viability, T/C", "setting": "second compound 3.16 µM, first compound 3.16 µM", "result": 118, "unit": "%"}, {"measurement": "viability, T/C", "setting": "second compound 3.16 µM, first compound 10 µM", "result": 139, "unit": "%"}, {"measurement": "viability, T/C", "setting": "[21]", "result": 113, "unit": "%"}, {"measurement": "viability, T/C", "setting": "[22]", "result": 105, "unit": "%"}, {"measurement": "viability, T/C", "setting": "[23]", "result": 126, "unit": "%"}, {"measurement": "viability, T/C", "setting": "[24]", "result": 121, "unit": "%"}, {"measurement": "viability, T/C", "setting": "second compound 10 µM, first compound 3.16 µM", "result": 113, "unit": "%"}, {"measurement": "viability, T/C", "setting": "second compound 10 µM, first compound 10 µM", "result": 145, "unit": "%"}]}
